Measured values taken from patent publication US8163778B2 (Hoffmann-LA Roche Inc., priority 2007, dated 2012).

Target: T1, human liver FBPase (Homo sapiens, UniProt P09467)
T1 construct: made in house; host or cells: E. coli
T1 sequence (P09467 2-338 limits assumed): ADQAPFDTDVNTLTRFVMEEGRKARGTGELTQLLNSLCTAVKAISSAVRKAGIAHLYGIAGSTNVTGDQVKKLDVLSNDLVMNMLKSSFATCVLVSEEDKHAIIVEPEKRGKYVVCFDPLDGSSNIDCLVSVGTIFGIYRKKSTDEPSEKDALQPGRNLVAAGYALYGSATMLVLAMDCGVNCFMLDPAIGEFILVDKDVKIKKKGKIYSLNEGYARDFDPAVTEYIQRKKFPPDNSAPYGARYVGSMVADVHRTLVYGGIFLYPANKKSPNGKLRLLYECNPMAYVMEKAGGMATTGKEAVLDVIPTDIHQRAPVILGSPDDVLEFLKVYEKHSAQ
Assay: FBPase assay (malachite green phosphate release)
Assay type: biochemical
Details: recombinant human liver FBPase, 50 μM fructose-1,6-bisphosphate
Summary of the method: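 Recombinant human liver FBPase (E. coli-expressed, heat-treated, purified) reacted with 50 μM fructose-1,6-bisphosphate in pH 7.2 HEPES, 2 mM MgCl2, 1% DMSO, 50 min at room temperature. Released phosphate quantified with malachite green/ammonium molybdate reagent at 620 nm.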

IC50 | SMILES
0.558 µM | COCCc1sc(S(=O)(=O)NC(=O)Nc2cc(C(F)(F)F)c(F)c(N)n2)cc1C [Compound 79, N-{[6-Amino-5-fluoro-4-(trifluoromethyl)pyridin-2-yl]carbamoyl}-5-(2-methoxyethyl)-4-methylthiophene-2-sulfonamide]
1.61 µM | C=C(C)CNc1cc(SC)cc(NC(=O)NS(=O)(=O)c2cc(C)c(CCOC)s2)n1 [Compound 80, 5-(2-Methoxyethyl)-4-methyl-N-({6-[(2-methylprop-2-en-1-yl)amino]-4-(methylthio)pyridin-2-yl}carbamoyl)thiophene-2-sulfonamide]
0.665 µM | CC(=O)OCCc1sc(S(=O)(=O)NC(=O)Nc2cc(C(F)(F)F)c(F)c(N)n2)cc1C [Compound 81, 2-{5-[({[6-Amino-5-fluoro-4-(trifluoromethyl)pyridin-2-yl]carbamoyl}amino)sulfonyl]-3-methyl-2-thienyl}ethyl acetate]
1.87 µM | Nc1cc(Br)cc(NC(=O)NS(=O)(=O)c2coc3ccccc23)n1 [Compound 82, N-[(6-Amino-4-bromopyridin-2-yl)carbamoyl]-1-benzofuran-3-sulfonamide]
0.429 µM | Cc1cc(S(=O)(=O)NC(=O)Nc2cc(C(F)(F)F)c(F)c(N)n2)sc1CCO [Compound 84, N-{[6-Amino-5-fluoro-4-(trifluoromethyl)pyridin-2-yl]carbamoyl}-5-(2-hydroxyethyl)-4-methylthiophene-2-sulfonamide]
0.756 µM | COCCc1sc(S(=O)(=O)NC(=O)Nc2cc(C(F)(F)F)cc(N)n2)cc1C [Compound 85, N-{[6-Amino-4-(trifluoromethyl)pyridin-2-yl]carbamoyl}-5-(2-methoxyethyl)-4-methylthiophene-2-sulfonamide]
1.78 µM | COCCc1sc(S(=O)(=O)NC(=O)Nc2cc(SC)cc(C)n2)cc1C [Compound 86, 5-(2-Methoxyethyl)-4-methyl-N-{[6-methyl-4-(methylthio)pyridin-2-yl]carbamoyl}thiophene-2-sulfonamide]
4.76 µM | CSc1cc(N)nc(NC(=O)NS(=O)(=O)c2coc3ccc(Br)cc23)c1 [Compound 87, N-{[6-Amino-4-(methylthio)pyridin-2-yl]carbamoyl}-5-bromo-1-benzofuran-3-sulfonamide]
2.16 µM | COCCc1sc(S(=O)(=O)NC(=O)Nc2cc(C(F)(F)F)cc(C(=O)OC)n2)cc1C [Compound 91, Methyl-6-[({[5-(2-methoxyethyl)-4-methyl-2-thienyl]sulfonyl}carbamoyl)amino]-4-(trifluoromethyl)pyridine-2-carboxylate]
0.844 µM | CC(=O)OCCc1sc(S(=O)(=O)NC(=O)Nc2cc(C(F)(F)F)cc(Cl)n2)cc1C [Compound 93, 2-{5-[({[6-chloro-4-(trifluoromethyl)pyridin-2-yl]carbamoyl}amino)sulfonyl]-3-methyl-2-thienyl}ethyl acetate]
1.6 µM | CNC(=O)Nc1cc([S+](C)[O-])cc(NC(=O)NS(=O)(=O)c2cc(C)c(CCOC)s2)n1 (centres unmarked) [Compound 94, 5-(2-Methoxyethyl)-4-methyl-N-({6-[(methylcarbamoyl)amino]-4-(methylsulfinyl)pyridin-2-yl}carbamoyl)thiophene-2-sulfonamide]
2.29 µM | COC(=O)c1cc(C(F)(F)F)cc(NC(=O)NS(=O)(=O)c2csc(C)c2)n1 [Compound 98, Methyl-6-({[(5-methyl-3-thienyl)sulfonyl]carbamoyl}amino)-4-(trifluoromethyl)pyridine-2-carboxylate]
0.92 µM | CCOC(=O)c1cc(NC(=O)NC)nc(NC(=O)NS(=O)(=O)c2cc(C)c(CCOC)s2)c1 [Compound 99, Ethyl-2-[({[5-(2-methoxyethyl)-4-methyl-2-thienyl]sulfonyl}carbamoyl)amino]-6-[(methylcarbamoyl)amino]isonicotinate]
> 100 µM | CNC(=O)Nc1cc(C(N)=O)cc(NC(=O)NS(=O)(=O)c2cc(C)c(CCOC)s2)n1 [Compound 101, 2-[({[5-(2-Methoxyethyl)-4-methyl-2-thienyl]sulfonyl}carbamoyl)amino]-6-[(methylcarbamoyl)amino]isonicotinamide]
5.7 µM | CNC(=O)Nc1cc(C(=O)NC)cc(NC(=O)NS(=O)(=O)c2cc(C)c(CCOC)s2)n1 [Compound 103, 2-[({[5-(2-Methoxyethyl)-4-methyl-2-thienyl]sulfonyl}carbamoyl)amino]-N-methyl-6-[(methylcarbamoyl)amino]isonicotinamide]

Further lines, the molecule ahead of its results:

SMILES | IC50
COCCc1sc(S(=O)(=O)NC(=O)Nc2cc(SC)cc(NCCCC(=O)OC)n2)cc1C [Compound 73, Methyl-4-({6-[({[5-(2-methoxyethyl)-4-methyl-2-thienyl]sulfonyl}carbamoyl)amino]-4-(methylthio)pyridin-2-yl}amino)butanoate] | 1.74 µM
COCCc1sc(S(=O)(=O)NC(=O)Nc2cc(SC)cc(NCCCO)n2)cc1C [Compound 74, N-({6-[(3-Hydroxypropyl)amino]-4-(methylthio)pyridin-2-yl}carbamoyl)-5-(2-methoxyethyl)-4-methylthiophene-2-sulfonamide] | 2.26 µM
COCCc1sc(S(=O)(=O)NC(=O)Nc2cc(SC)cc(NCCC(F)(F)F)n2)cc1C [Compound 75, 5-(2-Methoxyethyl)-4-methyl-N-({4-(methylthio)-6-[(3,3,3-trifluoropropyl)amino]pyridin-2-yl}carbamoyl)thiophene-2-sulfonamide] | 1.69 µM
CC(=O)OCCc1sc(S(=O)(=O)NC(=O)Nc2cc(C(F)(F)F)ccn2)cc1C [Compound 77, 2-{3-Methyl-5-[({[4-(trifluoromethyl)pyridin-2-yl]carbamoyl}amino)sulfonyl]-2-thienyl}ethyl acetate] | 0.809 µM
Cc1cc(S(=O)(=O)NC(=O)Nc2cc(C(F)(F)F)ccn2)sc1CCO [Compound 78, 5-(2-Hydroxyethyl)-4-methyl-N-{[4-(trifluoromethyl)pyridin-2-yl]carbamoyl}thiophene-2-sulfonamide] | 0.906 µM
Nc1cc(Br)cc(NC(=O)NS(=O)(=O)c2coc3ccc(Br)cc23)n1 [Compound 83, N-[(6-Amino-4-bromopyridin-2-yl)carbamoyl]-5-bromo-1-benzofuran-3-sulfonamide] | 5.23 µM
COCCc1sc(S(=O)(=O)NC(=O)Nc2cc(SC)cc(C(=O)O)n2)cc1C [Compound 88, Sodium-6-[({[5-(2-methoxyethyl)-4-methyl-2-thienyl]sulfonyl}carbamoyl)amino]-4-(methylthio)pyridine-2-carboxylate] | 55.4 µM
CNC(=O)Nc1cc(SC)cc(NC(=O)NS(=O)(=O)c2coc3ccccc23)n1 [Compound 89, N-({6-[(Methylcarbamoyl)amino]-4-(methylthio)pyridin-2-yl}carbamoyl)-1-benzofuran-3-sulfonamide] | 0.5 µM
COCCc1sc(S(=O)(=O)NC(=O)Nc2cc(C(F)(F)F)cc(Cl)n2)cc1C [Compound 90, N-{[6-chloro-4-(trifluoromethyl)pyridin-2-yl]carbamoyl}-5-(2-methoxyethyl)-4-methylthiophene-2-sulfonamide] | 1.06 µM
COC(=O)c1cc(C(F)(F)F)cc(NC(=O)NS(=O)(=O)c2cc(C)c(CCOC(C)=O)s2)n1 [Compound 92, Methyl-6-[({[5-(2-acetoxyethyl)-4-methyl-2-thienyl]sulfonyl}carbamoyl)amino]-4-(trifluoromethyl)pyridine-2-carboxylate] | 1.61 µM
COCCc1sc(S(=O)(=O)NC(=O)Nc2cc([S+](C)[O-])cc(NC(N)=O)n2)cc1C (centres unmarked) [Compound 95, N-{[6-(Carbamoylamino)-4-(methylsulfinyl)pyridin-2-yl]carbamoyl}-5-(2-methoxyethyl)-4-methylthiophene-2-sulfonamide] | 5.08 µM
COCCc1sc(S(=O)(=O)NC(=O)Nc2cc(C(F)(F)F)cc(C)n2)cc1C [Compound 96, 5-(2-methoxyethyl)-4-methyl-N-{[6-methyl-4-(trifluoromethyl)pyridin-2-yl]carbamoyl}thiophene-2-sulfonamide] | 0.527 µM
CNC(=O)c1cc(C(F)(F)F)cc(NC(=O)NS(=O)(=O)c2cc(C)c(CCO)s2)n1 [Compound 97, Methyl-6-[({[5-(2-hydroxyethyl)-4-methyl-2-thienyl]sulfonyl}carbamoyl)amino]-4-(trifluoromethyl)pyridine-2-carboxamide] | 0.278 µM
CCOC(=O)c1cc(N)nc(NC(=O)NS(=O)(=O)c2cc(C)c(CCOC)s2)c1 [Compound 100, Ethyl-2-amino-6-[({[5-(2-methoxyethyl)-4-methyl-2 thienyl]sulfonyl}carbamoyl)amino]isonicotinate] | 3.41 µM
COCCc1sc(S(=O)(=O)NC(=O)Nc2cc(C(N)=O)cc(N)n2)cc1C [Compound 102, 2-Amino-6-[({[5-(2-methoxyethyl)-4-methyl-2-thienyl]sulfonyl}carbamoyl)amino]isonicotinamide] | 42 µM
CNC(=O)c1cc(N)nc(NC(=O)NS(=O)(=O)c2cc(C)c(CCOC)s2)c1 [Compound 104, 2-Amino-6-[({[5-(2-methoxyethyl)-4-methyl-2-thienyl]sulfonyl}carbamoyl)amino]-N-methylisonicotinamide] | > 100 µM
COC(=O)c1cc(C(F)(F)F)cc(NC(=O)NS(=O)(=O)c2cc(C)c(CCO)s2)n1 [Compound 105, Methyl-6-[({[5-(2-hydroxyethyl)-4-methyl-2-thienyl]sulfonyl}carbamoyl)amino]-4-(trifluoromethyl)pyridine-2-carboxylate] | 2.61 µM
